# Assay results: patent US20260207600A1, “METHODS OF TREATMENT WITH MYOSIN MODULATOR” (MYOKARDIA, INC., priority 2019, published 2026)
# Like-named read-outs stand apart in the source and are kept apart here.
# Assays:
# anaesthetized rats = assay: Counteraction of mavacamten effects by dobutamine in anaesthetized rats; assay type: in vivo, rat
# Excerpt: Additional supportive measures, e.g., intravenous volume supplementation and/or the use of arterial vasoconstrictor agents (a adrenergic agonists) may complement the use of a β adrenergic agonist.
# [1] = Solubility estimates at ambient temperature; assay type: physicochemical; conditions: thermodynamic from solid, Form A (Lot 2-4), read-out: Solubility (estimate)
# Procedure: Solubilities were calculated based on the total solvent used to give a solution; actual solubilities may be greater because of the volume of solvent portions utilized or a slow rate of dissolution. […] If dissolution occurred at the first aliquot, the value was reported as “>”.
# Solubility estimates at ambient temperature were performed in 25 solvents and solvent systems using Form A (Lot 2-4) (Table 13.3).
# [2] = tested on: conscious Sprague-Dawley rats; assay: Positive inotropic challenge (dobutamine, levosimendan) after supra-therapeutic mavacamten, echocardiography; assay type: in vivo, rat; conditions: supra-therapeutic dose, healthy rats
# Procedure: Methods: The responsiveness of mavacamten-induced cardio-depression to positive inotropic challenges was assessed in a set of conscious Sprague-Dawley rats. In these animals, functional reserve was assessed via either dobutamine (+DOB, 10 μg/kg/min IV for 10 min, n=7) or levosimendan (+LEVO, 0.3 μmol/kg IV over […]; n=6) challenges given 3 hrs following a single-dose administration of MAVA (at 4 mg/kg, PO). Cardiac function/geometry were recorded and compared at three separate time-points/days: prior to dosing (i.e., at baseline) and at 3 hrs post-dosing both before as well as during the inotropic challenge; in order to account for the levosimendan-induced changes in loading conditions, an additional echocardiographic examination was performed following acute preload-restoration in LEVO-treated rats (+LEVO/F, 0.9% NaCl at 30 mL/kg/hr IV).
# In these experiments, left-ventricular fractional shortening (FS), an index of systolic performance, as well as LV dimensions/volumes and heart rates were measured using a high-frequency transducer and parasternal long-axis transthoracic views (Vevo2100, VisualSonic). FS was defined as the end-diastole normalized change in internal dimensions/diameter of the left ventricle between end-systole (LVESd) and end-diastole (LVEDd) (i.e., FS=100·[LVEDd−LVESd]/LVEDd). LV volumes were derived assuming a Teichholz model (LVV=7·[2.4+LVid]−1·LVid3).
smiles,measurement,setting,value
"CC(C)n1c(=O)cc(N[C@@H](C)c2ccccc2)[nH]c1=O [mavacamten, (S)-3-Isopropyl-6-((1-phenylethyl)amino)pyrimidine-2, 4(1H,3H)-dione]",Reversal of pharmacologic effects by β adrenergic agonist,anaesthetized rats,can be counteracted by β adrenergic agonists
same,solubility,"[1]; aqueous with cosolvent or surfactant or cyclodextrin, DMSO:water (50:50)",< 1 mg/mL
same,solubility,"[1]; aqueous with cosolvent or surfactant or cyclodextrin, MeOH:water (50:50)",< 1 mg/mL
same,solubility,"[1]; organic solvent or mixture, Anisole",< 1 mg/mL
same,solubility,"[1]; organic solvent or mixture, DMF:CHCl3 (90:10)",~27 mg/mL
same,solubility,"[1]; organic solvent or mixture, DMF:EtOAc (80:20)",~27 mg/mL
same,solubility,"[1]; organic solvent or mixture, DMF:EtOH (75:25)",~28 mg/mL
same,solubility,"[1]; organic solvent or mixture, DMF:anisole (90:10)",~28 mg/mL
same,solubility,"[1]; organic solvent or mixture, DMF:iPrOH (80:20)",~43 mg/mL
same,solubility,"[1]; organic solvent or mixture, DMF:toluene (90:10)",~42 mg/mL
same,solubility,"[1]; organic solvent or mixture, DMSO:p-dioxane (80:20)",> 42 mg/mL
same,solubility,"[1]; organic solvent or mixture, DMSO:water (90:10)",~5 mg/mL
same,solubility,"[1]; organic solvent or mixture, HFIPA",> 60 mg/mL
same,solubility,"[1]; organic solvent or mixture, HFIPA:water (90:10)",~28 mg/mL
same,solubility,"[1]; organic solvent or mixture, MIBK",< 1 mg/mL
same,solubility,"[1]; organic solvent or mixture, MeOH",~2 mg/mL
same,solubility,"[1]; organic solvent or mixture, MeOH:water (90:10)",< 1 mg/mL
same,solubility,"[1]; organic solvent or mixture, NMP:EtOAc (80:20)",~45 mg/mL
same,solubility,"[1]; organic solvent or mixture, NMP:MeOH (75:25)",~38 mg/mL
same,solubility,"[1]; organic solvent or mixture, NMP:toluene (80:20)",~27 mg/mL
same,solubility,"[1]; organic solvent or mixture, NMP:water (90:10)",~23 mg/mL
same,solubility,"[1]; organic solvent or mixture, THF",~2 mg/mL
same,solubility,"[1]; organic solvent or mixture, THF:water (90:10)",~13 mg/mL
same,solubility,"[1]; organic solvent or mixture, iPrOH",< 1 mg/mL
same,solubility,"[1]; organic solvent or mixture, nitromethane",< 1 mg/mL
same,solubility,"[1]; organic solvent or mixture, toluene",< 1 mg/mL
same,reduction in ejection fraction,[2],~50%
